This assay deals with 3-beta-hydroxysteroid-Delta(8),Delta(7)-isomerase (Homo sapiens, UniProt Q15125). Put plainly: Determination of Binding Affinity to EBP-7-Dehydrocholesterol Reductase. As to the method:
The plates were sealed and incubated at 4° C. for 3 hrs. Then, the plates were washed with ice-cold assay buffer 3 times. […] Following this, the plate was centrifuged at 1000 rpm for 30 secs. The plate was then sealed and agitated at 600 rpm at 22° C. for 5 min, and then incubated at 22° C. for 3 hrs. The incubation was stopped by transferring the binding solution to the pre-treated UniFilter-96 GF/B plate, vacuum filtrated, and then washed four times with ice-cold assay buffer. Following this, the plates were dried at 37° C. for 45 min. The plates were then sealed at the bottom. 40 µl/well of scintillation cocktail was added to the plates.

The structures appear in SMILES notation.

Chain of 3-beta-hydroxysteroid-Delta(8),Delta(7)-isomerase (Q15125 whole entry): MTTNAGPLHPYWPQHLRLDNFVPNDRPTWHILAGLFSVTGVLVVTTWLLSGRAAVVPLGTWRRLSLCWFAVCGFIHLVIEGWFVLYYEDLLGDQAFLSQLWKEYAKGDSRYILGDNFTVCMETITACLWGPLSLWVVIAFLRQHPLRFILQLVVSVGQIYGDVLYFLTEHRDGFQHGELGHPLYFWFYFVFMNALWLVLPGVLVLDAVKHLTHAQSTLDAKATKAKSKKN

Broadly, the Ki is the dissociation constant of the complex between target and ligand, obtained from inhibition or displacement. Low readings indicate tighter binding, high ones weaker binding. `CC(C)n1nc(-c2cncc(C(F)(F)F)c2)cc1[C@H]1[C@@H]2C[C@@H](N3CCOCC3)C[C@@H]21` [US20260008775, Example Table4.2] showed a Ki of 0.188 µM.

These data come from BindingDB's records for patent US20260008775 (Genentech, 2026).
